# Earlier results in patent publication US20240358662A1, “COMPOSITIONS, METHODS AND SYSTEMS FOR AEROSOL DRUG DELIVERY” (ASTRAZENECA PHARMACEUTICALS LP, priority 2021, published 2024).
# Settings: for Latent Heat @ Boiling Point: at boiling point
Liquid Density @ 20° C. [g/mL],Liquid Viscosity @ 20° C. (mPa · S),Surface Tension @ 20° C. (mN/m),Vapor Pressure @ 20° C. (kPa),Latent Heat @ 25° C. [kJ/kg],Latent Heat @ Boiling Point [kJ/kg],SMILES
1.23,0.211 mPa · S,8.09,570,177.7,216.7,"FCC(F)(F)F [HFA-134a, 1,1,1,2-tetrafluoroethane]"
1.41,0.267 mPa · S,7.50,390,110.97,131.4,"FC(C(F)(F)F)C(F)(F)F [HFA-227ea, 1,1,1,2,3,3,3-Heptafluoropropane]"
0.91,0.171 mPa · S,10.4,510,279.1,318.4,"CC(F)F [HFC-152a, 1,1-Difluoroethane]"

SMILES,Liquid Density @ 20° C. [g/mL],Liquid Viscosity @ 20° C. (mPa · S),Surface Tension @ 20° C. (mN/m),Vapor Pressure @ 20° C. (kPa),Latent Heat @ 25° C. [kJ/kg],Latent Heat @ Boiling Point [kJ/kg]
"C=C(F)C(F)(F)F [HFO-1234yf, 2,3,3,3-Tetrafluoropropene]",1.11,0.164 mPa · S,6.8,592,145.4,180.5
"FC=CC(F)(F)F [HFO-1234ze, 1,3,3,3-tetrafluoropropene]",1.18,0.206^3 mPa · S,8.9,427,166.8,195.43
